The text below walks through data of paper PMC10135059, “Kaurane-Type Diterpenoids as Potential Inhibitors of Dihydrofolate Reductase-Thymidylate Synthase in New World Leishmania Species” (Antibiotics, 2023).

For assay [1], the target named is L. chagasi PTR1 and DHFR-TS. On the set-up: method as in PMID 31409157. As to conditions: L. chagasi PTR1 vs DHFR-TS; cited from earlier work.
Assay [2] addresses T1, L. major dihydrofolate reductase (LmDHFR), recombinant LmDHFR-TS (Leishmania major, UniProt P07382).
T1 construct: made in house
In words: LmDHFR-TS enzyme inhibition assay (spectrophotometric, standard DHFR conditions). Format: biochemical. The protocol:
Then, using the Cheng–Prusoff equation and assuming reversible competitive inhibition and a 1:1 stoichiometry, the apparent inhibitory constant (Ki^app) was calculated for the selected kauranes using the IC50 results, as shown in Table 1.
Purification and kinetic characterization of the recombinant LmDHFR-TS protein was performed according to the previously reported procedures. The in vitro evaluation of selected diterpenoids (i.e., 4, 135, 301, 302, 301a, and 302a) for inhibitory activity against LmDHFR-TS was conducted using a spectrophotometric assay under standard DHFR conditions. The assay consisted of LmDHFR (2.7 nM), bovine serum albumin (BSA, 1 mg/mL), N-[tris(hydroxymethyl)-methyl]-2-aminoethanesulfonic acid (TES) buffer (100 mM, pH 7.0, […] β-mercaptoethanol, 2 mM ethylenediaminetetraacetic acid (EDTA)), and nicotinamide adenine dinucleotide phosphate (NADPH, 100 μM) with varying concentrations of the test compounds (0.1–128 μM). The reaction was initiated by adding the substrate (7,8-dihydrofolate (H2F), 20 μM) and was monitored for 360 s at 340 nm (i.e., oxidation of NADPH to NADP+) to determine the initial reaction rate (Vo) through linear regression analysis of the resulting absorbance profile. […] The Ki^app values were finally calculated using the Cheng–Prusoff equation for competitive inhibition with a 1:1 stoichiometry and reversible inhibitor-binding reactions: Ki^app = IC50/(1 + [S]/Km), where [S] is the substrate (H2F) concentration and Km is the Michaelis constant.

Assay [3] concerns the target T1, L. major dihydrofolate reductase (LmDHFR), recombinant LmDHFR-TS. The description is as above. In kind it is biochemical. The settings on record: cutoff pIC50 value of the L. major machine learning model.
Assay [4] relates to Leishmania major PTR1 (LmPTR1). Also on record: method as in PMID 34063939. The settings on record: previous study; cited from earlier work.
Setting [5] is: IC50, LmDHFR 2.7 nM, NADPH 100 μM, H2F 20 μM, test compounds 0.1–128 μM, triplicate.

The term Ki denotes the dissociation constant of the complex between target and ligand, obtained from inhibition or displacement. What is called IC50 is the concentration at which inhibition is half-maximal.

T1 sequence (P07382 whole entry): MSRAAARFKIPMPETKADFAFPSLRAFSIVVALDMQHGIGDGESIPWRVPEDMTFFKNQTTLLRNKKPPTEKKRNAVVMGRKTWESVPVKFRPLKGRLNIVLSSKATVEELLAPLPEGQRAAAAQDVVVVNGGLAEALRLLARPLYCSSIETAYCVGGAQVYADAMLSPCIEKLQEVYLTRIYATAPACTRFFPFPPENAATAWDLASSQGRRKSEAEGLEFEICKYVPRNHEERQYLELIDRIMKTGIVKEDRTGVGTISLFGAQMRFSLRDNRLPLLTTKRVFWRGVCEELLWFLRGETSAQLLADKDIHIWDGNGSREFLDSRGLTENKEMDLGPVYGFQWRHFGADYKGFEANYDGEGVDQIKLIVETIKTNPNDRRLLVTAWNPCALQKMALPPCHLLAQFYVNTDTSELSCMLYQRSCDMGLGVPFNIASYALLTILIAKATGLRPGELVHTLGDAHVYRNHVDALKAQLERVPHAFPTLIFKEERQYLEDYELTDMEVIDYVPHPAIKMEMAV

Take `Nc1nc(N)c(Cc2ccccc2)c(CC2CCCCC2)n1` [2,4-diamine, 5-benzyl-6-(cyclohexylmethyl) pyrimidine-2,4-diamine]: the “Ki^Lc^PTR1/Ki^Lc^DHFR-TS ratio” value in assay [1] is recorded as 0.68.

`C=C1CC23CCC4C(C)(C(=O)O)C(OC(=O)C=Cc5ccccc5)CCC4(C)C2(O)CCC1C3` (stereo not drawn) [structure 301, 3α-cinnamoyloxy-9β-hydroxy-ent-kaur-16-en-19-oic Acid]: the inhibition constant Ki in assay [2] was found to be 0.94 µM. Besides, the IC50 is 8.8 µM in assay [2] (setting [5]) and below 10 µM in assay [2] (pIC50, pIC50 = −log IC50). Moreover, the “classification against DHFR-TS” value in assay [3] is “active”. In assay [4], the “classification against PTR1” value is “inactive”.

In the case of `C=C1CC23CCC4C(C)(C(=O)O)C(OC(=O)C=Cc5ccc(O)cc5)CCC4(C)C2(O)CCC1C3` (stereo not drawn) [structure 301a, 3α-p-coumaroyloxy-9β-hydroxy-ent-kaur-16-en-19-oic acid], the Ki in assay [2] amounted to 0.85 µM. Also, the 50% inhibitory concentration (IC50) was 7.9 µM in assay [2] (setting [5]) and below 10 µM in assay [2] (pIC50, pIC50 = −log IC50). Further, the “reduction of Ki^app compared to kauranes 301 and 302” value in assay [2] (effect of p-hydroxyl group, 301a vs 301, 302a vs 302) is 10%. For the same molecule, the “classification against PTR1” value in assay [4] was “inactive”.

For `C=C1CC23CCC4C(C)(C(=O)OC5C=C(C)C(O)CC5C(C)C)CCCC4(C)C2CCC1C3` (stereo not drawn) [structure 135, 2β-hydroxy-menth-6-en-5β-yl ent-kaurenoate], in assay [2], the inhibition constant Ki worked out at 1.2 µM. Besides, in assay [2] (setting [5]), the IC50 was 11.2 µM.

As for `CC1(C)OCC2(CC34CCC5C(C)(C)C(=O)CCC5(C)C3CCC2C4)O1` (stereo not drawn) [structure 4, 16ß,17-Isopropylidenedioxy-ent-kauran-3-one], the Ki in assay [2] was determined as 0.81 µM. Further, the half-maximal inhibitory concentration (IC50) in assay [2] (setting [5]) worked out at 7.6 µM.

With `C=C1CC23CCC4C(C)(CCC(OC(=O)C=Cc5ccccc5)C4(C)C(=O)O)C2CCC1C3` (stereo not drawn) [structure 302, 3α-cinnamoyloxy-ent-kaur-16-en-19-oic acid], in assay [2], the Ki came to 0.68 µM. The IC50 in assay [2] (setting [5]) was 6.3 µM; in assay [2] (pIC50, pIC50 = −log IC50) it was below 10 µM. Besides, in assay [4], the “half-maximal inhibitory concentrations (IC50) against PTR1” value is reported as “less than 10 µg/mL”.
